From patent US5786492A, “Halichondrins” (Pharma Mar, S.A., priority 1992, dated 1998) come the findings set out here.

In brackets after ≈: the same amount, converted by molar mass. Where only a bound is given, the exact number is not on record here.

The subject of this experiment is P388 cell line. The experiment in a line: antitumor P388 bioassay. It counts as cell-based, murine. The settings on record: for IC50, murine leukaemia cell (P388 cell line): text comparison of three halichondrins. An excerpt: Most of the compounds have been submitted to the antitumor P388 bioassay.

As to `C=C1C[C@@H]2CC[C@@]34C[C@H]5O[C@H]6[C@@H](O3)[C@H]3O[C@H](CC[C@@H]3O[C@H]6[C@H]5O4)CC(=O)O[C@@H]3[C@@H](C)[C@@H]4O[C@@H]5C[C@]6(C[C@@H]7O[C@]8(C[C@H](C)[C@@H]9O[C@H]([C@@H](O)C[C@@H](O)CO)C[C@@H]9O8)C[C@H](C)[C@@H]7O6)O[C@@H]5C[C@@H]4O[C@H]3C[C@H]3O[C@@H](CC[C@@H]1O2)C[C@@H](C)C3=C` [Halichondrin B], the “IC50, murine leukaemia cell (P388 cell line)” value was found to be 6.7 ng/mL (≈ 6.03 nM). Besides, the “IC50 against P388 cell line” value (conc 0.0001 (unit of conc not given)) worked out at 0.78 ng/mL (≈ 0.702 nM). For the same compound, the “IC50 against P388 cell line” value (conc 0.001 (unit of conc not given)) was 1.58 ng/mL (≈ 1.42 nM). Further, the “IC50 against P388 cell line” value (other day, conc 0.001 (unit of conc not given)) was under 0.09 ng/mL.

As to `C=C1C[C@@H]2CC[C@@]34C[C@H]5O[C@H]6[C@@H](O3)[C@H]3O[C@H](CC[C@@H]3O[C@H]6[C@H]5O4)CC(=O)O[C@@H]3[C@@H](C)[C@@H]4O[C@@H]5C[C@]6(C[C@@H]7O[C@]8(C[C@H](C)[C@@H]9O[C@@H]%10CC(C(O)CO)O[C@@H]%10C[C@@H]9O8)C[C@H](C)[C@@H]7O6)O[C@@H]5C[C@@H]4O[C@H]3C[C@H]3O[C@@H](CC[C@@H]1O2)C[C@@H](C)C3=C` (some centres unmarked) [Homohalichondrin B], the “IC50, murine leukaemia cell (P388 cell line)” value worked out at 6.4 ng/mL (≈ 5.7 nM).
